Test system: Plasmopara viticola
Assay: persistency against peronospora of grapevines caused by Plasmopara viticola, 7-day protective application
Format: in vivo, Plasmopara viticola on potted vines
Conditions: individual active compound, 7-day protective application on grapevine leaves
Method: The active compounds, separately or jointly, were prepared as a stock solution comprising 0.25% by weight of active compound in acetone or DMSO. 1% by weight of the emulsifier Uniperol® EL (wetting agent having emulsifying and dispersant action based on ethoxylated alkylphenols) was added to this solution, and the mixture was diluted with water to the desired concentration.
Use example—persistency against peronospora of grapevines caused by Plasmopara viticola, 7-day protective application Leaves of potted vines were sprayed to runoff point with an aqueous suspension having the concentration of active compound stated below. 7 days later, the undersides of the leaves were inoculated with an aqueous sporangia suspension of Plasmopara viticola. The grapevines were then initially placed in a water-vapor-saturated chamber at 24° C. for 48 hours and then in a greenhouse at 20-30° C. for 5 days. After this period of time, the plants were again placed in a humid chamber for 16 hours to accelerate sporangiophore eruption. The extent of the development of the disease on the undersides of the leaves was then determined visually.
The visually determined percentages of infected leaf areas were converted into efficacies in % of the untreated control:
The efficacy (E) is calculated as follows using Abbot's formula: E=(1−α/β)·100 α corresponds to the fungicidal infection of the treated plants in % and β corresponds to the fungicidal infection of the untreated (control) plants in % An efficacy of 0 means that the infection level of the treated plants corresponds to that of the untreated control plants; an efficacy of 100 means that the treated plants were not infected.
The expected efficacies of mixtures of active compounds were determined using Colby's formula (Colby, S. R. “Calculating synergistic and antagonistic responses of herbicide combinations”, Weeds, 15, 20-22, 1967) and compared with the observed efficacies.
Colby's formula: E=x+y−x·y/100
E expected efficacy, expressed in % of the untreated control, when using the mixture of the active compounds A and B at the concentrations a and b x efficacy, expressed in % of the untreated control, when using the active compound A at the concentration a y efficacy, expressed in % of the untreated control, when using the active compound B at the concentration b

CC1CCN(c2c(-c3c(F)cc(F)cc3F)c(Cl)nc3ncnn23)CC1 [I, 5-chloro-7-(4-methylpiperidin-1-yl)-6-(2,4,6-trifluorophenyl)-[1,2,4]tri-azolo[1,5-a]pyrimidine]
Efficacy in % of the untreated control (1 ppm in the spray liquor): 0% | Efficacy in % of the untreated control (5 ppm in the spray liquor): 0% | Efficacy in % of the untreated control (10 ppm in the spray liquor): 6%

O=C(NCc1ncc(C(F)(F)F)cc1Cl)c1c(Cl)cccc1Cl [II, 2,6-dichloro-N-(3-chloro-5-trifluoromethylpyridin-2-ylmethyl)-benzamide]
Efficacy in % of the untreated control (2.5 ppm in the spray liquor): 65% | Efficacy in % of the untreated control (5 ppm in the spray liquor): 76%
